Laboratory results as given in patent US11377441B2, “Covalent inhibitors of KRAS” (Araxes Pharma LLC, priority 2017, dated 2022).

The molecules below were run against T1, KRAS G12C 1-169, his-tagged protein, GDP-loaded (Homo sapiens, UniProt P01116, G12C) (assay: Biochemical assay: covalent modification of KRAS G12C measured by mass spectrometry (RapidFire/TOF or Q-Exactive)). Conditions: covalent binding to (modification of) KRAS G12C after a ten minute incubation period.
T1 construct: KRAS G12C 1-169, his-tagged protein, GDP-loaded
Format: binding
Outline: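 Intact-mass readout (TOF or Q-Exactive, charge-envelope deconvolution) gives percent covalent adduct from modified and unmodified species. Compound at 10, 30 or 100 μM was incubated at room temperature for 10 min to 24 h with 2 μM or 0.5 μM GDP-bound KRAS G12C 1-169 in Hepes/NaCl/MgCl2 buffer, then acid-quenched.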
For `C=CC(=O)N1C[C@H](C)N(c2nc(OC[C@H]3CC(F)(F)CN3C)nc3c(F)c(-c4c(C)ccc5cnn(C)c45)c(Cl)cc23)C[C@H]1C` [Compound 241, 1-((2R,5S)-4-(6-chloro-2-(((R)-4,4-difluoro-1-methylpyrrolidin-2-yl)methoxy)-7-(1,6-dimethyl-1H-indazol-7-yl)-8-fluoroquinazolin-4-yl)-2,5-dimethylpiperazin-1-yl)prop-2-en-1-one], the Binding % was “+ (+ indicates binding activity greater than 0% and up to 50%)”. For `C=CC(=O)N1C[C@H](C)N(c2nc(N3CC(C(N)=O)C3)nc3c(F)c(-c4c(C)ccc5cnn(C)c45)c(Cl)cc23)C[C@H]1C` [Compound 244, 1-(4-((2S,5R)-4-acryloyl-2,5-dimethylpiperazin-1-yl)-6-chloro-7-(1,6-dimethyl-1H-indazol-7-yl)-8-fluoroquinazolin-2-yl)azetidine-3-carboxamide], the Binding % was “++ (++ indicates binding activity from 50 to 80%)”. For `C=CC(=O)N1C[C@H](C)N(c2nc(OC[C@@H]3CCCN3C(C)C)nc3c(F)c(-c4c(C)ccc5[nH]nc(C)c45)c(Cl)cc23)C[C@H]1C` [Compound 247, 1-((2R,5S)-4-(6-chloro-7-(3,5-dimethyl-1H-indazol-4-yl)-8-fluoro-2-(((S)-1-isopropylpyrrolidin-2-yl)methoxy)quinazolin-4-yl)-2,5-dimethylpiperazin-1-yl)prop-2-en-1-one], the Binding % was “++ (++ indicates binding activity from 50 to 80%)”. `C=CC(=O)N1C[C@H](C)N(c2nc(NC(C)=O)nc3c(F)c(-c4c(C)ccc5cnn(C)c45)c(Cl)cc23)C[C@H]1C` [Compound 256, N-(4-((2S,5R)-4-acryloyl-2,5-dimethylpiperazin-1-yl)-6-chloro-7-(1,6-dimethyl-1H-indazol-7-yl)-8-fluoroquinazolin-2-yl)acetamide] was tested, and the Binding % was “++ (++ indicates binding activity from 50 to 80%)”. For `C=CC(=O)N1C[C@H](C)N(c2nc(N3CC(C(N)=O)C3)nc3c(F)c(-c4c(C)ccc5[nH]nc(C6CC6)c45)c(Cl)cc23)C[C@H]1C` [Compound 257, 1-(4-((2S,5R)-4-acryloyl-2,5-dimethylpiperazin-1-yl)-6-chloro-7-(3-cyclopropyl-5-methyl-1H-indazol-4-yl)-8-fluoroquinazolin-2-yl)azetidine-3-carboxamide], the Binding % was “++ (++ indicates binding activity from 50 to 80%)”. `C=CC(=O)N1C[C@H](C)N(c2nc(C#CCOC)nc3c(F)c(-c4c(C)ccc5cnn(C)c45)c(Cl)cc23)C[C@H]1C` [Compound 258, 1-((2R,5S)-4-(6-chloro-7-(1,6-dimethyl-1H-indazol-7-yl)-8-fluoro-2-(3-methoxyprop-1-ynyl)quinazolin-4-yl)-2,5-dimethylpiperazin-1-yl)prop-2-en-1-one] was tested, and the Binding % was “+++ (+++ indicates binding activity greater than 80%)”. For `C=CC(=O)N1C[C@H](C)N(c2nc(NC(C)=O)nc3c(F)c(-c4c(C)ccc5[nH]nc(C6CC6)c45)c(Cl)cc23)C[C@H]1C` [Compound 259, N-(4-((2S,5R)-4-acryloyl-2,5-dimethylpiperazin-1-yl)-6-chloro-7-(3-cyclopropyl-5-methyl-1H-indazol-4-yl)-8-fluoroquinazolin-2-yl)acetamide], the Binding % was “++ (++ indicates binding activity from 50 to 80%)”. With `C=CC(=O)N1C[C@H](C)N(c2nc(NC(=O)CN(C)C)nc3c(F)c(-c4c(C)ccc5cnn(C)c45)c(Cl)cc23)C[C@H]1C` [Compound 260, N-(4-((2S,5R)-4-acryloyl-2,5-dimethylpiperazin-1-yl)-6-chloro-7-(1,6-dimethyl-1H-indazol-7-yl)-8-fluoroquinazolin-2-yl)-2-(dimethylamino)aceta-mide] the Binding % was “+++ (+++ indicates binding activity greater than 80%)”. `C=CC(=O)N1C[C@H](C)N(c2nc(N3CC(N(C)C)C3)nc3c(F)c(-c4cccc5c4N(C)C(=O)C5)c(Cl)cc23)C[C@H]1C` [Compound 262, 7-(4-((2S,5R)-4-acryloyl-2,5-dimethylpiperazin-1-yl)-6-chloro-2-(3-(dimethylamino)azetidin-1-yl)-8-fluoroquinazolin-7-yl)-1-methylindolin-2-one] was tested, and the Binding % was “+ (+ indicates binding activity greater than 0% and up to 50%)”. In the case of `C=CC(=O)N1C[C@H](C)N(c2nc(N3CC(N(C)C)C3)nc3c(F)c(-c4c(C)ccc5c4NC(=O)C5)c(Cl)cc23)C[C@H]1C` [Compound 263, 7-(4-((2S,5R)-4-acryloyl-2,5-dimethylpiperazin-1-yl)-6-chloro-2-(3-(dimethylamino)azetidin-1-yl)-8-fluoroquinazolin-7-yl)-6-methylindolin-2-one], the Binding % is reported as “+ (+ indicates binding activity greater than 0% and up to 50%)”. In the case of `C=CC(=O)N1C[C@H](C)N(c2nc(OC3CC(N(C)C)C3)nc3c(F)c(-c4c(C)ccc5[nH]ncc45)c(Cl)cc23)C[C@H]1C` (stereo partly drawn) [Compound 264, 1-((2R,5S)-4-(6-chloro-2-(3-(dimethylamino)cyclo-butoxy)-8-fluoro-7-(5-methyl-1H-indazol-4-yl)quinazolin-4-yl)-2,5-dimethylpiperazin-1-yl)prop-2-en-1-one], the Binding % is reported as “+++ (+++ indicates binding activity greater than 80%)”. With `C=CC(=O)N1C[C@H](C)N(c2nc(N3CC(N(C)C)C3)nc3c(F)c(N4CCCc5ccccc54)c(Cl)cc23)C[C@H]1C` [Compound 265, 1-((2R,5S)-4-(6-chloro-7-(3,4-dihydroquinolin-1(2H)-yl)-2-(3-(dimethylamino)azetidin-1-yl)-8-fluoroquinazolin-4-yl)-2,5-dimethylpiperazin-1-yl)prop-2-en-1-one] the Binding % was “++ (++ indicates binding activity from 50 to 80%)”. For `C=CC(=O)N1CCN(c2nc(N3CC(N(C)C)C3)nc3c(F)c(-c4c(C)ccc5cn[nH]c45)c(Cl)cc23)CC1CC#N` (stereo not drawn) [Compound 266, 2-(1-acryloyl-4-(6-chloro-2-(3-(dimethylamino)azetidin-1-yl)-8-fluoro-7-(6-methyl-1H-indazol-7-yl)quinazolin-4-yl)piperazin-2-yl)acetonitrile], the Binding % was “++ (++ indicates binding activity from 50 to 80%)”. `C=CC(=O)N1CCN(c2nc(N3CC(N(C)C)C3)nc3c(F)c(-c4c(C)ccc5[nH]ncc45)c(Cl)cc23)CC1CC#N` (stereo not drawn) [Compound 267, 2-(1-acryloyl-4-(6-chloro-2-(3-(dimethyalmino)azetidin-1-yl)-8-fluoro-7-(5-methyl-1H-indazol-4-yl)quinazolin-4-yl)piperazin-2-yl)acetonitrile] was tested, and the Binding % was “+++ (+++ indicates binding activity greater than 80%)”. With `C=CC(=O)N1CCN(c2nc(OC[C@@H]3CCCN3C)nc3c(F)c(-c4c(C)ccc5cn[nH]c45)c(Cl)cc23)CC1CC#N` (stereo partly drawn) [Compound 268, 2-(1-acryloyl-4-(6-chloro-8-fluoro-7-(6-methyl-1H-indazol-7-yl)-2-(((S)-1-methylpyrrolidin-2-yl)methoxy)quinazolin-4-yl)piperazin-2-yl)acetonitrile] the Binding % was “+++ (+++ indicates binding activity greater than 80%)”. For `C=CC(=O)N1CCN(c2nc(N3CC(N(C)C)C3)nc3c(F)c(-c4c(C)ccc5cnn(C)c45)c(Cl)cc23)CC1CC#N` (stereo not drawn) [Compound 269, 2-(1-acryloyl-4-(6-chloro-7-(1,6-dimethyl-1H-indazol-7-yl)-2-(3-(dimethylamino)azetidin-1-yl)-8-fluoroquinazolin-4-yl)piperazin-2-yl)acetonitrile], the Binding % was “+++ (+++ indicates binding activity greater than 80%)”. In the case of `C=CC(=O)N1CCN(c2nc(N3CC(N(C)C)C3)nc3c(F)c(-c4c(C)ccc5[nH]nc(C)c45)c(Cl)cc23)CC1CC#N` (stereo not drawn) [Compound 270, 2-(1-acryloyl-4-(6-chloro-7-(3,5-dimethyl-1H-indazol-4-yl)-2-(3-(dimethylamino)azetidin-1-yl)-8-fluoroquinazolin-4-yl)piperazin-2-yl)acetonitrile], the Binding % is reported as “+++ (+++ indicates binding activity greater than 80%)”. For `C=CC(=O)N1CCN(c2nc(OC[C@@H]3CCCN3C)nc3c(F)c(-c4c(C)ccc5[nH]ncc45)c(Cl)cc23)CC1CC#N` (stereo partly drawn) [Compound 271, 2-(1-acryloyl-4-(6-chloro-8-fluoro-7-(5-methyl-1H-indazol-4-yl)-2-(((S)-1-methylpyrrolidin-2-yl)methoxy)quinazolin-4-yl)piperazin-2-yl)acetonitrile], the Binding % was “+++ (+++ indicates binding activity greater than 80%)”.
